Data taken from patent publication US9815819B2, “Complement pathway modulators and uses thereof” (priority 2012, dated 2017).
Where two headings read alike, the source gives them in different places.

Biological target: Recombinant human factor D (Homo sapiens (Human), UniProt P00746)
Assay: Human Complement Factor D Assay: Method 1
Type: biochemical
Details: Factor D inhibition, Method 1: 10 nM factor D, 1 hour incubation with compound at room temperature, substrate Z-Lys-thiobenzyl, fluorescence readout
Description: Recombinant human factor D (expressed in E. coli and purified using standard methods) at 10 nM concentration is incubated with test compound at various concentrations for 1 hour at room temperature in 0.1 M Hepes buffer, pH 7.5, containing 1 mM MgCl2, 1 M NaCl and 0.05% CHAPS. […] IC50 values are calculated from percentage of inhibition of complement factor D-activity as a function of test compound concentration.

Recombinant human factor D, sequence (P00746 26-253): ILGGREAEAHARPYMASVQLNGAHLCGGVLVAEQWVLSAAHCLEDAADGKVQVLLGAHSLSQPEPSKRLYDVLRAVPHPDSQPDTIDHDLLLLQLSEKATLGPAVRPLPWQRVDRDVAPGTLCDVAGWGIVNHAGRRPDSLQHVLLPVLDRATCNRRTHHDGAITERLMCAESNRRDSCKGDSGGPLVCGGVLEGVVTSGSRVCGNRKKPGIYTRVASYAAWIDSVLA

| IC50 (read-out: IC50) | SMILES | IC50 (IC50 (μM)) |
| --- | --- | --- |
| 0.037 µM | CC(=O)c1nn(CC(=O)N2[C@H](C(=O)N[C@@H]3C[C@H]3c3ccccc3Cl)C[C@@]3(CO)C[C@@H]23)c2cnccc12 [Example 31, (1R,3S,5S)-2-[2-(3-Acetyl-pyrazolo[3,4-c]pyridin-1-yl)-acetyl]-5-hydroxymethyl-2-aza-bicyclo[3.1.0]hexane-3-carboxylic acid[(1R,2S)-2-(2-chloro-phenyl)-cyclopropyl]-amide] |  |
| 0.791 µM | CC(=O)c1nn(CC(=O)N2[C@@H]3C[C@@H]3C[C@H]2C(=O)N[C@H]2C[C@@H]2c2ccccc2F)c2ncccc12 [Example 64, (1R,3S,5R)-2-[2-(3-Acetyl-pyrazolo[3,4-b]pyridin-1-yl)-acetyl]-2-aza-bicyclo[3.1.0] hexane-3-carboxylic acid [(1S,2R)-2-(2-fluoro-phenyl)-cyclopropyl]-amide] |  |
| 0.87 µM | CC(=O)c1nn(CC(=O)N2[C@@H]3C[C@@H]3C[C@H]2C(=O)N[C@]2(C)C[C@H]2c2ccccc2)c2cnccc12 [Example 22, (1R,3S,5R)-2-[2-(3-Acetyl-pyrazolo[3,4-c]pyridin-1-yl)-acetyl]-2-aza-bicyclo[3.1.0] hexane-3-carboxylic acid ((1R,2S)-1-methyl-2-phenyl-cyclopropyl)-amide] |  |
| 0.09 µM | Cc1cc2c(C(N)=O)nn(CC(=O)N3C[C@H](F)C[C@H]3C(=O)N[C@@H]3C[C@H]3c3ccccc3F)c2cn1 [Example 71, 1-(2-{(2S,4R)-4-Fluoro-2-[(1R,2S)-2-(2-fluoro-phenyl)-cyclopropylcarbamoyl]-pyrrolidin-1-yl}-2-oxo-ethyl)-5-methyl-1H-pyrazolo[3,4-c]pyridine-3-carboxylic acid amide] |  |
| 0.117 µM | NC(=O)c1nn(CC(=O)N2C[C@H](F)C[C@H]2C(=O)N[C@@H]2C[C@H]2c2ccccc2)c2ncccc12 [Example 17, 1-{2-[(2S,4R)-4-Fluoro-2-((1R,2S)-2-phenyl-cyclopropylcarbamoyl)-pyrrolidin-1-yl]-2-oxo-ethyl}-1H-pyrazolo[3,4-b]pyridine-3-carboxylic acid amide] |  |
| 0.109 µM | CC(=O)c1nn(CC(=O)N2[C@@H]3C[C@@H]3C[C@H]2C(=O)N[C@@H]2C[C@H]2c2cccc(Cl)c2F)c2ncccc12 [Example 56, (1R,3S,5R)-2-[2-(3-Acetyl-pyrazolo[3,4-b]pyridin-1-yl)-acetyl]-2-aza-bicyclo[3.1.0]hexane-3-carboxylic acid [(1R,2S)-2-(3-chloro-2-fluoro-phenyl)-cyclopropyl]-amide] |  |

The remaining lines, values behind:

| SMILES | IC50 (read-out: IC50) | IC50 (IC50 (μM)) |
| --- | --- | --- |
| NC(=O)c1nn(CC(=O)N2[C@@H]3C[C@@H]3C[C@H]2C(=O)N[C@@H]2C[C@@]2(F)c2ccccc2)c2cc(F)c(F)cc12 [Example 25, 5,6-Difluoro-1-{2-[(1R,3S,5R)-3-((1R,2R)-2-fluoro-2-phenyl-cyclopropylcarbamoyl)-2-aza-bicyclo[3.1.0]hex-2-yl]-2-oxo-ethyl}-1H-indazole-3-carboxylic acid amide] | 0.11 µM |  |
| NC(=O)c1nn(CC(=O)N2[C@@H]3C[C@@H]3C[C@H]2C(=O)N[C@@H]2C[C@@]2(F)c2ccccc2)c2ccccc12 [Example 39, 1-{2-[(1R,3S,5R)-3-((1R,2R)-2-fluoro-2-phenyl-cyclopropylcarbamoyl)-2-aza-bicyclo[3.1.0]hex-2-yl]-2-oxo-ethyl}-1H-indazole-3-carboxylic acid amide] | 0.048 µM |  |
| NC(=O)c1nn(CC(=O)N2[C@@H]3C[C@@H]3C[C@H]2C(=O)NC2CCCC(c3ccccc3)C2)c2ccccc12 (single isomer, unassigned) [Example 81] |  | 5.65 µM |
| NC(=O)c1nn(CC(=O)N2[C@@H]3C[C@@H]3C[C@H]2C(=O)NC2CC2c2ccc(F)cc2F)c2ccccc12 (single isomer, unassigned) [Example 77] | 0.64 µM |  |
| NC(=O)c1nn(CC(=O)N2[C@@H]3C[C@@H]3C[C@H]2C(=O)NC2CCCC(c3ccccc3)C2)c2ccccc12 (single isomer, unassigned) [Example 78] |  | 2 µM |
| NC(=O)c1nn(CC(=O)N2[C@@H]3C[C@@H]3C[C@H]2C(=O)N[C@H]2C[C@]2(F)c2ccccc2)c2ccccc12 [Example 38, 1-{2-[(1R,3S,5R)-3-((1S,2S)-2-fluoro-2-phenyl-cyclopropylcarbamoyl)-2-aza-bicyclo[3.1.0]hex-2-yl]-2-oxo-ethyl}-1H-indazole-3-carboxylic acid amide] | 0.635 µM |  |
